Source: the supplement of paper PMC6045584
± gives the standard deviation of the averaged measurements.

compound: CCN(CC)CCCCNc1ncc2cc(-c3cc(OC)cc(OC)c3)c(NC(=O)NC(C)(C)C)nc2n1; assay: surviving fraction relative to DMSO-only wells; higher = less growth inhibition; conditions: 50 nM; exposure time: 5 days
How it was run: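 Tumour cell lines were seeded in log phase at 250–500 cells per well into 384-well plates. Starting 24 hours later, inhibitors were present continuously for five days at 0.5, 1, 5, 10, 50, 100, 500 and 1000 nM. Surviving fraction, from CellTiter-Glo luminescence, is normalised to the median of DMSO-only wells. Three screens per line were required, with replicate Pearson r >0.7 and median Z' >0.3 for a line to be kept.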

Point of comparison: HCC1954 BREAST, surviving fraction 1.08 ± 0.041. Against it:
- SUM149.B1*.S BREAST — lower, 0.933 ± 0.029
- 93VU HEADNECK — within error, 1.03 ± 0.095
- LM7 BONE — within error, 1.01 ± 0.043
- 143B BONE — lower, 1.01 ± 0.016
- SUM159 BREAST — within error, 1.12 ± 0.26
- SUM149 BREAST — within error, 1.03 ± 0.069
- MDAMB361 BREAST — within error, 0.955 ± 0.097
- SAOS2 BONE — higher, 1.23 ± 0.043
- ASKA SYNOVIAL — within error, 1.14 ± 0.046
- HCC1395 BREAST — lower, 0.872 ± 0.14
- CME SYNOVIAL — within error, 1.18 ± 0.1
- VCAP PROSTATE — within error, 1.06 ± 0.034
- YAMATO SYNOVIAL — within error, 1.14 ± 0.024
- HCC202 BREAST — within error, 1.27 ± 0.32
- HELA CERVIX — within error, 1.03 ± 0.047
- SG27 HEADNECK — lower, 0.879 ± 0.04
- CAL72 BONE — lower, 0.833 ± 0.038
- MDAMB134 BREAST — lower, 0.872 ± 0.073
- C33A CERVIX — within error, 0.968 ± 0.1
- SKBR3 BREAST — within error, 0.979 ± 0.13
- MHM BONE — lower, 0.964 ± 0.02
- VP229 BREAST — within error, 1.22 ± 0.12
- SYO1 SYNOVIAL — lower, 0.699 ± 0.016
- ZR751 BREAST — lower, 0.912 ± 0.04
- KPD BONE — within error, 1.02 ± 0.039
- SIHA CERVIX — lower, 0.908 ± 0.063
- DU4475 BREAST — lower, 0.814 ± 0.16
- BT549 BREAST — within error, 1.18 ± 0.17
- COLO320DM LARGE INTESTINE — within error, 1.06 ± 0.064
- T47D BREAST — within error, 1.03 ± 0.023
- H23 LUNG — lower, 0.983 ± 0.02
- NCIH441 LUNG — within error, 1.04 ± 0.052
- HCT15 LARGE INTESTINE — lower, 0.963 ± 0.027
- SCC90 HEADNECK — lower, 0.88 ± 0.049
- MDAMB453 BREAST — within error, 1.03 ± 0.082
- MG63 BONE — lower, 0.8687 ± 0.0035
- A549 LUNG — lower, 0.963 ± 0.01
- MDAMB468 BREAST — lower, 0.975 ± 0.055

same assay, conditions: 100 nM; exposure time: 5 days

Point of comparison: BT549 BREAST, surviving fraction 1.04 ± 0.096. Against it:
- SUM149.B1*.S BREAST — within error, 1.06 ± 0.041
- 93VU HEADNECK — within error, 0.884 ± 0.18
- LM7 BONE — within error, 1.13 ± 0.24
- 143B BONE — within error, 1.01 ± 0.061
- SUM159 BREAST — within error, 1.13 ± 0.23
- SUM149 BREAST — within error, 1.1 ± 0.13
- MDAMB361 BREAST — lower, 0.846 ± 0.034
- SAOS2 BONE — higher, 1.19 ± 0.037
- ASKA SYNOVIAL — within error, 1.18 ± 0.065
- HCC1395 BREAST — lower, 0.867 ± 0.074
- HCC1954 BREAST — the same, 1.04 ± 0.2
- CME SYNOVIAL — higher, 1.22 ± 0.05
- VCAP PROSTATE — within error, 1.12 ± 0.069
- YAMATO SYNOVIAL — higher, 1.37 ± 0.037
- HCC202 BREAST — higher, 1.41 ± 0.073
- HELA CERVIX — within error, 1.07 ± 0.065
- SG27 HEADNECK — lower, 0.817 ± 0.032
- CAL72 BONE — lower, 0.484 ± 0.013
- MDAMB134 BREAST — within error, 0.902 ± 0.069
- C33A CERVIX — within error, 0.871 ± 0.12
- SKBR3 BREAST — within error, 0.992 ± 0.077
- MHM BONE — within error, 0.915 ± 0.029
- VP229 BREAST — within error, 1.11 ± 0.13
- SYO1 SYNOVIAL — lower, 0.727 ± 0.056
- ZR751 BREAST — within error, 1.1 ± 0.11
- KPD BONE — within error, 0.97 ± 0.058
- SIHA CERVIX — within error, 0.905 ± 0.098
- DU4475 BREAST — lower, 0.762 ± 0.11
- COLO320DM LARGE INTESTINE — within error, 1.1 ± 0.11
- T47D BREAST — within error, 1.02 ± 0.043
- H23 LUNG — within error, 1.02 ± 0.013
- NCIH441 LUNG — within error, 1.01 ± 0.059
- HCT15 LARGE INTESTINE — within error, 0.9977 ± 0.0093
- SCC90 HEADNECK — within error, 0.961 ± 0.17
- MDAMB453 BREAST — the same, 1.04 ± 0.09
- MG63 BONE — lower, 0.771 ± 0.013
- A549 LUNG — within error, 1.032 ± 0.0046
- MDAMB468 BREAST — within error, 1.1 ± 0.033

same assay, conditions: 500 nM; exposure time: 5 days

Point of comparison: VP229 BREAST, surviving fraction 1.22 ± 0.061. Against it:
- SUM149.B1*.S BREAST — lower, 1.03 ± 0.011
- 93VU HEADNECK — lower, 1.01 ± 0.085
- LM7 BONE — lower, 0.869 ± 0.075
- 143B BONE — lower, 0.97 ± 0.054
- SUM159 BREAST — within error, 1.11 ± 0.21
- SUM149 BREAST — lower, 1.01 ± 0.056
- MDAMB361 BREAST — lower, 0.937 ± 0.065
- SAOS2 BONE — lower, 0.995 ± 0.051
- ASKA SYNOVIAL — within error, 1.09 ± 0.086
- HCC1395 BREAST — lower, 0.826 ± 0.17
- HCC1954 BREAST — lower, 0.829 ± 0.072
- CME SYNOVIAL — lower, 1.06 ± 0.068
- VCAP PROSTATE — lower, 0.998 ± 0.059
- YAMATO SYNOVIAL — within error, 1.2 ± 0.069
- HCC202 BREAST — within error, 1.13 ± 0.14
- HELA CERVIX — lower, 1.06 ± 0.023
- SG27 HEADNECK — lower, 0.784 ± 0.05
- CAL72 BONE — lower, 0.281 ± 0.022
- MDAMB134 BREAST — lower, 0.829 ± 0.064
- C33A CERVIX — lower, 0.828 ± 0.073
- SKBR3 BREAST — lower, 1 ± 0.05
- MHM BONE — lower, 0.7063 ± 0.007
- SYO1 SYNOVIAL — lower, 0.669 ± 0.055
- ZR751 BREAST — lower, 1.01 ± 0.067
- KPD BONE — lower, 0.925 ± 0.025
- SIHA CERVIX — lower, 0.776 ± 0.027
- DU4475 BREAST — lower, 0.702 ± 0.2
- BT549 BREAST — lower, 0.932 ± 0.059
- COLO320DM LARGE INTESTINE — lower, 1.03 ± 0.068
- T47D BREAST — lower, 1.02 ± 0.054
- H23 LUNG — lower, 1.02 ± 0.029
- NCIH441 LUNG — lower, 1.02 ± 0.053
- HCT15 LARGE INTESTINE — lower, 0.987 ± 0.011
- SCC90 HEADNECK — lower, 0.883 ± 0.17
- MDAMB453 BREAST — lower, 1.07 ± 0.033
- MG63 BONE — lower, 0.6363 ± 0.0049
- A549 LUNG — lower, 1.006 ± 0.0065
- MDAMB468 BREAST — lower, 0.983 ± 0.033

same assay, conditions: 1000 nM; exposure time: 5 days

Point of comparison: CME SYNOVIAL, surviving fraction 0.969 ± 0.11. Against it:
- SUM149.B1*.S BREAST — within error, 1.08 ± 0.017
- 93VU HEADNECK — within error, 0.949 ± 0.076
- LM7 BONE — lower, 0.739 ± 0.11
- 143B BONE — within error, 0.995 ± 0.038
- SUM159 BREAST — within error, 1.18 ± 0.3
- SUM149 BREAST — within error, 1.08 ± 0.14
- MDAMB361 BREAST — within error, 0.859 ± 0.025
- SAOS2 BONE — within error, 0.906 ± 0.054
- ASKA SYNOVIAL — within error, 0.992 ± 0.013
- HCC1395 BREAST — within error, 0.818 ± 0.18
- HCC1954 BREAST — within error, 0.951 ± 0.11
- VCAP PROSTATE — within error, 1.01 ± 0.055
- YAMATO SYNOVIAL — within error, 1.08 ± 0.088
- HCC202 BREAST — higher, 1.24 ± 0.061
- HELA CERVIX — within error, 1.13 ± 0.075
- SG27 HEADNECK — lower, 0.805 ± 0.047
- CAL72 BONE — lower, 0.208 ± 0.026
- MDAMB134 BREAST — within error, 0.873 ± 0.05
- C33A CERVIX — within error, 0.814 ± 0.065
- SKBR3 BREAST — within error, 0.848 ± 0.13
- MHM BONE — lower, 0.664 ± 0.017
- VP229 BREAST — within error, 1.15 ± 0.11
- SYO1 SYNOVIAL — lower, 0.653 ± 0.009
- ZR751 BREAST — within error, 1.05 ± 0.12
- KPD BONE — within error, 0.884 ± 0.058
- SIHA CERVIX — lower, 0.818 ± 0.013
- DU4475 BREAST — within error, 0.703 ± 0.18
- BT549 BREAST — within error, 0.843 ± 0.068
- COLO320DM LARGE INTESTINE — within error, 1.1 ± 0.041
- T47D BREAST — within error, 1.08 ± 0.03
- H23 LUNG — within error, 1.02 ± 0.079
- NCIH441 LUNG — within error, 1.06 ± 0.051
- HCT15 LARGE INTESTINE — within error, 1.06 ± 0.047
- SCC90 HEADNECK — lower, 0.814 ± 0.035
- MDAMB453 BREAST — within error, 0.814 ± 0.053
- MG63 BONE — lower, 0.641 ± 0.016
- A549 LUNG — within error, 1.05 ± 0.061
- MDAMB468 BREAST — within error, 0.956 ± 0.021
